This note sets out measurements from US12605350B2, “Composition for preventing, ameliorating, or treating disease caused by nitration of tyrosine in proteins comprising tyrosine as effective component” (INDUSTRY-ACADEMIC COOPERATION FOUNDATION GYEONGSANG …, priority 2020, dated 2026).

SMILES strings stand for the structures.

Assay [1] deals with high-fat diet mouse model of type 2 diabetes. Kind of assay: ROS/RNS amount in plasma, high-fat diet model. Format: in vivo. The following applies: HFD+L-Tyr vs HFD. The protocol: (§1) Twenty-seven C57BL/6 male mice (3-week old) were acclimated to the breeding condition for 1 week. […] Blood glucose was measured every week.
(§2) Mouse was anesthetized with avertin, and blood was collected from a heart. After the reaction with EDTA in a vacucontainer, the blood was centrifuged for 15 minutes at 1,500×g, 4° C. to separate plasma. According to heart perfusion with PBS and 4% paraformaldehyde (PFA), tissue fixation was carried out. Then, each tissue was harvested and stored in PFA.
After 3-fold dilution of the plasma in PBS, concentration of reactive oxygen/reactive nitrogen (ROS/RNS) in plasma was measured using Oxiselect ROS/RNS assay kit (Cell Biolabs) according to the recommended experimental protocol.

Assay [2] deals with T1, human recombinant MnSOD (Homo sapiens, UniProt P04179).
T1 sequence (P04179 25-222): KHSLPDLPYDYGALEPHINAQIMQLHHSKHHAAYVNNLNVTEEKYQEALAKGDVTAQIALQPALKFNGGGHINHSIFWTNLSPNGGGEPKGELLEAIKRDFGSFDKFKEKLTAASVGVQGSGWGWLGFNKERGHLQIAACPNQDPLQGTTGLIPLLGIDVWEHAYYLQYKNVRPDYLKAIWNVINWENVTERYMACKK
Kind of assay: SOD activity of human recombinant MnSOD treated with peroxynitrite. Type of assay: biochemical. The following applies: human recombinant MnSOD with peroxynitrite (2.1 mM PN), 10 minutes on ice. How it is done: Peroxynitrite was diluted by 40 times with 0.3 M NaOH, and absorbance at 302 nm was measured. Then, it was quantified by using the molar absorption coefficient of peroxynitrite) (ε302=1670 M^−1 cm^−1).
For the measurement of SOD activity, SOD colorimetric activity kit by ThermoFisher was used. Human recombinant MnSOD within reference SOD range, peptide, and peroxynitrite were admixed with one another, and the reaction was allowed to occur on ice for 10 minutes. To a 96-well plate, 10 μl of reference SOD or the reaction mixture, and 50 μl of a substrate solution provided in the kit were added, and the absorbance at 450 nm was measured. After adding 25μl of xanthine oxidase provided in the kit and allowing the reaction to occur for 20 minutes at room temperature, absorbance at 450 nm was measured. By using the data obtained by subtracting the first-measured absorbance from the second-measured absorbance, SOD activity was obtained.

Assay [3] relates to high-fat diet mouse model of type 2 diabetes. The experiment in a line: glucose tolerance test. Type of assay: in vivo. The conditions noted are these: HFD+L-Tyr vs HFD; 16 hours fasting, glucose 2 g per 1 kg i.p., 30-120 minutes. How it is done:
as §1
D-glucose was dissolved in 1×PBS to prepare 40% D-glucose solution. Blood glucose of a mouse, which has been subjected to fasting for 16 hours, was measured, and, for having intraperitoneal injection of glucose in an amount of 2 g per 1 kg bodyweight, the animal was intraperitoneally injected with the glucose solution according to the following Formula (1). Glucose injection amount(μl)=Bodyweight(g)×5 Formula (1)
For example, for a mouse with bodyweight of 45 g, 225 μl of 40% glucose solution were injected. After the intraperitoneal injection of glucose solution, blood glucose was measured at time points of 30, 60, 90 and 120 minutes.

Assay [4] deals with chronic immobilization stress group (STR). Kind of assay: SPT (sucrose preference test) after chronic immobilization stress. The conditions noted are these: tyrosine diet (181.2 mg/kg) compared to normal diet, p<0.01. Format: in vivo, mouse. The protocol:
The animal models were divided into two groups (i.e., normal group and stress group). The animal of stress group was individually brought by force to a restrainer for 2 hours every day (i.e., between 2 PM and 4 PM) so that it was applied with chronic immobilization stress for 15 days. Change in bodyweight and food intake amount were measured every other day.
The normal group and stress group were divided again into a normal diet group and a tyrosine-supplemented diet group (181.2 mg/kg), and then fed.
For SPT (sucrose preference test), 0.1 M sucrose and water were provided for 48 hours so that the animals are habituated with them. After that, none of 0.1 M sucrose and water was provided for 24 hours, and then 0.1 M sucrose and water were provided again for 6 hours. Then, 0.1 M sucrose and water were moved to different positions for 3 hours.
After that, consumption amount of sucrose and water was measured, and the sugar preference was calculated in terms of the ratio of provided sucrose compared to total consumption amount.

The test system of assay [5] is high-fat diet mouse model of type 2 diabetes. The experiment in a line: fat accumulation in tissues, high-fat diet model. Format: in vivo. How it is done: as §1, §2
The subject of assay [6] is mouse model of chronic immobilization stress. Kind of assay: object recognition test (ORT). Format: in vivo. The conditions noted are these: D-Tyr-containing diet (181 mg D-Tyr/kg AIN-93G), chronic stress 14 days. The protocol:
(§3) Twenty-eight C57BL/6 male mice (7-week old) were divided into two groups, each group provided for 1 week with a normal diet or D-tyrosine (D-Tyr)-containing diet (181 mg D-Tyr/kg AIN-93G).
(§4) Once the animals become 8-week old, they were applied with chronic immobilization stress (CIS) under light condition of 200 lux, 2 hours per day for 2 weeks. The animals were divided into the control group (CTL), D-Tyr diet control group (CTL+D-Tyr), chronic stress group (STR), and D-Tyr diet chronic stress group (STR+D-Tyr), in which each group consists of 7 animals.
(§5) Upon the completion of the CIS for 2 weeks, a cognitive function test was carried out. To compare the cognitive function between the group provided with D-Tyr-containing diet over the entire test period including habituation period and normal feed diet group, an object recognition test (ORT) and an object location recognition test (OLT) for testing long-term memory skills were carried out.
ORT: The test consists of three stages, i.e., habituation, familiarization, and test. The animals were habituated in a test box, 10 minutes per day for 2 days. At the familiarization stage on Day 3, they were allowed to explore two identical objects for 10 minutes. […] The object recognition function index (i.e., discrimination index: DI) was calculated based on the following formula (3). […]

Assay [7] shares this test system. The experiment in a line: object location recognition test (OLT). Type of assay: in vivo. The following applies: D-Tyr-containing diet (181 mg D-Tyr/kg AIN-93G), chronic stress 14 days. The protocol: as §3, §4, §5
OLT: 24 Hours after carrying out ORT, location of a familiar object was changed, and the animal was allowed to explore for 5 minutes. According to the same method as the aforementioned object recognition function index (DI), ratio of time spent for exploring an object with changed location compared to the entire time for exploring an object was calculated. Accordingly, object location recognition function index was obtained.

The mark [8] stands for this setting: HFD animal model, L-tyrosine diet (181 mg/kg).

Regarding `N[C@@H](Cc1ccc(O)cc1)C(=O)O` [L-tyrosine], in assay [1], the “plasma ROS/RNS level” value is “statistically significant decrease in plasma ROS/RNS level”. In assay [2], the “MnSOD (SOD) activity” value is listed as “higher MnSOD activity”. Also, the “blood glucose, glucose tolerance test” value in assay [3] is on record as “statistically significant decrease in blood glucose amount”.

For `N[C@@H](Cc1ccc(O)cc1)C(=O)O` [tyrosine], in assay [4], the sugar preference entry was “statistically significant increase in the sugar preference”. In assay [5] (setting [8]), the “amount of fat tissues around kidney” value is listed as “reduced to a statistically different level” and the “fat accumulation in liver” value is recorded as “fat accumulation is reduced all over the liver”. The “tissue weight (fat accumulation in tissues)” value in assay [5] (HFD+Tyr compared to HFD) is recorded as “statistically significant decrease in tissue weight”. In assay [1] (listed as Tyr), the “plasma ROS/RNS level” value was “statistically significant decrease in tissue weight and ROS/RNS amount in plasma”. For the same compound, in assay [6], the “ORT (object recognition function index, DI)” value is “no statistically significant difference”. In assay [2] (listed as Tyr), the “MnSOD (SOD) activity” value is “SOD activity can be maintained”. Further, in assay [7], the “cognitive function according to OTL (object location recognition function index)” value was “maintained at the level of the control group”.
